{"source": "patent US11655239B2", "about": "(SHANGHAI INSTITUTE OF MATERIAL MEDICA, CHINESE ACADEMY OF …, priority 2019, dated 2023)", "data": [{"tested_on": "pulmonary fibrosis induced by bleomycin in mice", "test": "mRNA levels of fibrosis-related markers in lung tissue (qRT-PCR)", "assay_type": "in vivo, mouse", "settings": "30 mg/kg", "description": "About 30 mg of cryopreserved lung tissue was weighed and homogenized and lysed by adding 200 μL of Trizol (Takara, 9109 #). The fluid after the lysis in the well was collected by the RNA sterilization-grade pipette tip and transferred to the corresponding sterile EP tube. […] of chloroform was added, shaken vigorously for 30 sec, and centrifuged for 15 minutes in a centrifuge at 4° C. at 12000 rpm. The upper aqueous layer was transferred to a new EP tube, an equal volume of isopropanol was used to precipitate the RNA in the aqueous phase, and the tube was allowed to stand at −20° C. for more than 1 hr. And then the tube was centrifuged for 15 min at 4° C. at 12000 rpm, and the supernatant was discarded. 75% ethanol was added to wash the RNA pellet, and then the tube was centrifuged for 15 min at 4° C. at 12000 rpm, and the supernatant was discarded. The tube was placed at room temperature for 10-20 min to dry the RNA pellet. 25-200 μL of RNase-free water was added for dissolution and stored at −80° C.\nPrimeScript™ RT Master Mix (Takara, RR036A) was selected for mRNA reverse transcription. Please refer to the instructions for the system. In short, 1 μg of mRNA was added to a 20 μL system, mixed and then kept at a constant temperature in a 37° C. water bath for 15 minutes, and then the enzyme was inactivated at 85° C. for 5 seconds. After centrifugation, double distilled water was used to dilute 10 times.\nQ-PCR technology used 2×SYBR Green qPCR Master Mix (B21202, Biomake), and the reaction system could be prepared according to the instruction (10 μL of 2×SYBGreen, 8.8 μL of cDNA template, 1.2 μL of 5 μM primer Mix). The reaction conditions are: pre-denaturation at 95° C. for 5 min, denaturation at 95° C. for 30 sec, annealing at 60° C. for 30 sec, and extension at 72° C. for 30 sec, the number of reaction cycles is 40 cycles.\nThe experiment used qRT-PCR technology to determine the mRNA levels of fibrosis-related markers in lung tissue.\nThe experimental method was the same as that for the evaluation of the mRNA levels of inflammatory cytokines.", "values": [{"molecule": "Cc1ccc([C@H](C)NC(=O)c2cccc(C(F)(F)F)c2)cc1-c1ccc2nc(Nc3cnn(C4CC4)c3)ncc2c1", "note": "[Compound S11-A]", "reduction of expression (mRNA) of Collagen1-α1": "about 50%", "reduction of expression (mRNA) of TGF-β1": "about 50%", "reduction of expression (mRNA) of α-SMA": "about 50%"}]}, {"target": "DDR2 (Homo sapiens (Human), UniProt Q16832)", "sequence (Q16832 563-849)": "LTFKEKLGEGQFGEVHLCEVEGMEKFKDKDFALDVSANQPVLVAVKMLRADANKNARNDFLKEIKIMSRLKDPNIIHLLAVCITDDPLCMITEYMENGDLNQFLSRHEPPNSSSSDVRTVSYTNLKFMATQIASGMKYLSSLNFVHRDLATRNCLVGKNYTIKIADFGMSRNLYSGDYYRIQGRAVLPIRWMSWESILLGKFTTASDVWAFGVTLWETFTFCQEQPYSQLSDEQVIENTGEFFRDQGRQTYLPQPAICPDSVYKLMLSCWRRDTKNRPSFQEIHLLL", "test": "DDR2 enzyme activity test (ELISA)", "assay_type": "biochemical", "settings": "Table 3, chiral synthesis vs resolution; read-out: Molecular activity comparison (inhibitory activity against DDR2 enzyme)", "description": "(§1) The optical rotation and the inhibitory activity against DDR2 enzyme of the compounds S11-A and S11-B obtained by the resolution in Example 12, and the chirally synthesized compounds S11-A′ and S11-B′ in Example 13 were tested (referred to the operation in Effect example 1), and the results are shown in Table 3 below:\n(§2) Detection method: Enzyme-linked immunosorbent assay (ELISA)\n(§3) Test receptor tyrosine kinase: DDR2\n(§4) The kinase used in the experiment was obtained by our laboratory using the insect baculovirus expression system to express and purify the recombinant protein containing the protein kinase region; polyglutamic acid-tyrosine peptide segment [Poly(Glu, Tyr) 4:1] and sodium vanadate were purchased from Sigma; the anti-phosphorylated monoclonal antibody PY99 was purchased from Santa Cruz; horseradish peroxidase labeled goat anti-murine secondary antibody was purchased from Calbiochem; ATP and OPD were purchased from Sangon Biotech (Shanghai) Co., Ltd.; the remaining reagents were purchased from Sinopharm Chemical Reagent Co., Ltd. The reaction ELISA plate (#2592) was purchased from Corning. The full-wavelength microplate reader for experiment reading was a product of Molecular Device, model: SpectraMax 190; the experimental water was distilled water produced by Sinopharm Group.\n(§5) The compound was centrifuged at 12,000 g for 5 min, and DMSO was added to prepare a 10^-2M stock solution, which was vortexed evenly, then sonicated for 10 min and stored at −40° C. for later use. During the test, the compound was diluted with DMSO from the stock solution to 100 times the test concentration (the DMSO concentration in the system was 1%).\n(§6) 1) Enzyme reaction substrate Poly(Glu, Tyr) 4:1 was diluted to 20 μg/mL with potassium-free PBS (10 mM sodium phosphate buffer, 150 mM NaCl, pH 7.2-7.4), and the microtiter plate was coated with 125 μL/well and placed at 37° C. for 12-16 hours of reaction. The liquid in the well was discard. The plate was washed three times with T-PBS (potassium-free PBS containing 0.1% Tween-20, 200 μL/well), 5 minutes each time. The ELISA plate was dried in an oven at 37° C. for 1 to 2 hours.\n(§7) 2) Reaction buffer (50 mM HEPES pH 7.4, 50 mM MgCl2, 0.5 mM MnCl2, 0.2 mM Na3VO4, 1 mM DTT) diluted ATP solution (49 μL) was added to each well, 1 μL of the compound to be tested was added to each well, and then 50 μL of DDR2 kinase domain recombinant protein diluted in the reaction buffer was added to start the reaction. Two control wells without ATP were set in each experiment. The plate placed on a shaker (100 rpm) at 37° C. for 1 hour of reaction. The liquid in the well was discarded and the plate was washed three times with T-PBS.\n(§8) 3) Antibody PY99 dilution solution (the antibody was diluted 1:500 with T-PBS containing BSA 5 mg/mL) was added at 100 μL/well, and shaken on a shaker at 37° C. for 0.5 hour of reaction. The liquid in the well was discarded and the plate was washed three times with T-PBS.\n(§9) 4) Horseradish peroxidase labeled goat anti-murine secondary antibody dilution solution (the antibody is diluted 1:2000 with T-PBS containing BSA 5 mg/ml) was added at 100 μL/well, and shaken on a shaker at 37° C. for 0.5 hour of reaction. The liquid in the well was discarded and the plate was washed three times with T-PBS.\n(§10) 5) 2 mg/ml of OPD color developing solution [diluted with 0.1 M citric acid-sodium citrate buffer (pH=5.4) containing 0.03% H2O2] was added at 100 μL/well and reacted for 1 to 10 minutes at 25° C. in the dark.\n(§11) 6) 2M H2SO4 was added at 50 μL/well to stop the reaction, and a tunable wavelength microplate reader VERSAmax was used for reading at a wavelength of 490 nm.\n(§12) The IC50 value was obtained by four-parameter regression using the software that came with the microplate reader.", "units": {"IC50": "nM"}, "values": [{"molecule": "Cc1ccc([C@H](C)NC(=O)c2cccc(C(F)(F)F)c2)cc1-c1ccc2nc(Nc3cnn(C4CC4)c3)ncc2c1", "note": "[Compound S11-A]", "IC50": "5 ± 0.1"}, {"molecule": "Cc1ccc([C@@H](C)NC(=O)c2cccc(C(F)(F)F)c2)cc1-c1ccc2nc(Nc3cnn(C4CC4)c3)ncc2c1", "note": "[Compound S11-B]", "IC50": "14.4 ± 2.1"}]}, {"target": "DDR2 (Homo sapiens (Human), UniProt Q16832)", "test": "DDR2 enzyme activity test (ELISA)", "assay_type": "biochemical", "settings": "read-out: DDR2 IC50", "description": "as §1, §2, §3, §4, §5, §6, §7, §8, §9, §10, §11, §12", "units": {"IC50": "nM"}, "values": [{"molecule": "Cc1ccc(NC(=O)Nc2cccc(C(F)(F)F)c2)cc1-c1ccc2nc(Nc3cnn(C)c3)ncc2c1", "note": "[Compound S1, 1-(4-methyl-3-(2-((1-methyl-1H-pyrazol-4-yl)amino)quinazolin-6-yl)phenyl)-3-(3-(trifluoromethyl)phenyl)urea]", "IC50": "6.6 ± 0.4"}, {"molecule": "Cc1ccc(NC(=O)Nc2cc(C(C)(C)C)nn2-c2ccccc2)cc1-c1ccc2nc(Nc3cnn(C)c3)ncc2c1", "note": "[Compound S2, 1-(3-(tert-butyl)-1-phenyl-1H-pyrazol-5-yl)-3-(4-methyl-3-(2-((1-methyl-1H-pyrazol-4-yl)amino)quinazolin-6-yl)phenyl)urea]", "IC50": "9.7 ± 0.6"}, {"molecule": "Cc1ccc(C(C)NC(=O)c2cccc(C(F)(F)F)c2)cc1-c1ccc2cnc(Nc3cnn(C)c3)nc2c1", "note": "(centres unmarked) [Compound S4, N-(1-(4-methyl-3-(2-((1-methyl-1H-pyrazol-4-yl)amino)quinazolin-7-yl)phenyl)ethyl)-3-(Trifluoromethyl)benzamide]", "IC50": "4.1 ± 0.1"}, {"molecule": "Cc1ccc(C(=O)NC(C)c2cccc(C(F)(F)F)c2)cc1-c1ccc2nc(Nc3cnn(C)c3)ncc2c1", "note": "(centres unmarked) [Compound S5, 4-Methyl-3-(2-((1-methyl-1H-pyrazol-4-yl)amino)quinazolin-6-yl)-N-(1-(3-(trifluoromethyl)phenyl)ethyl)benzamide]", "IC50": "2.9 ± 0.8"}, {"molecule": "CCC(NC(=O)c1cccc(C(F)(F)F)c1)c1ccc(C)c(-c2ccc3nc(Nc4cnn(C)c4)ncc3c2)c1", "note": "(centres unmarked) [Compound S6, N-(1-(4-methyl-3-(2-((1-methyl-1H-pyrazol-4-yl)amino)quinazolin-6-yl)phenyl)propyl)-3-(trifluoromethyl)benzamide]", "IC50": "5 ± 0.5"}, {"molecule": "Cc1ccc(C(=O)NCc2cccc(C(F)(F)F)c2)cc1-c1ccc2nc(Nc3cnn(C)c3)ncc2c1", "note": "[Compound S7, 4-methyl-3-(2-((1-methyl-1H-pyrazol-4-yl)amino)quinazolin-6-yl)-N-(3-(trifluoromethyl)benzyl)benzamide]", "IC50": "1.3 ± 0.2"}, {"molecule": "Cc1ccc(NC(=O)C(C)c2cccc(C(F)(F)F)c2)cc1-c1ccc2nc(Nc3cnn(C)c3)ncc2c1", "note": "(centres unmarked) [Compound S8, N-(4-methyl-3-(2-((1-methyl-1H-pyrazol-4-yl)amino)quinazolin-6-yl)phenyl)-2-(3-(trifluoromethyl)phenyl)propionamide]", "IC50": "2.2 ± 0.2"}, {"molecule": "Cc1ccc(C(C)C(=O)Nc2cccc(C(F)(F)F)c2)cc1-c1ccc2nc(Nc3cnn(C4CC4)c3)ncc2c1", "note": "(centres unmarked) [Compound S9, 2-(3-(2-((1-cyclopropyl-1H-pyrazol-4-yl)amino)quinazolin-6-yl)-4-methylphenyl)-N-(3-(trifluoromethyl)phenyl)propionamide]", "IC50": "2.7 ± 0.1"}, {"molecule": "CC(C)c1ccc(C(=O)Nc2cccc(C(F)(F)F)c2)cc1-c1ccc2nc(Nc3cnn(C)c3)ncc2c1", "note": "[Compound S13, 4-isopropyl-3-(2-((1-methyl-1H-pyrazol-4-yl)amino)quinazolin-6-yl)-N-(3-(trifluoromethyl)phenyl)benzamide]", "IC50": "5.4 ± 0.4"}, {"molecule": "Cn1cc(Nc2ncc3cc(-c4cc(C(=O)Nc5cccc(C(F)(F)F)c5)ccc4C4CC4)ccc3n2)cn1", "note": "[Compound S14, 4-cyclopropyl-3-(2-((1-methyl-1H-pyrazol-4-yl)amino)quinazolin-6-yl)-N-(3-(trifluoromethyl)phenyl)benzamide]", "IC50": "4.3 ± 0.7"}, {"molecule": "CC(C(=O)Nc1ccc(C2CC2)c(-c2ccc3nc(Nc4cnn(C5CC5)c4)ncc3c2)c1)c1cccc(C(F)(F)F)c1", "note": "(centres unmarked) [Compound S17, N-(4-cyclopropyl-3-(2-((1-cyclopropyl-1H-pyrazol-4-yl)amino)quinazolin-6-yl)phenyl)-2-(3-(trifluoromethyl)phenyl)propionamide]", "IC50": "1.7 ± 0.3"}, {"molecule": "Cc1ccc(C(C)NC(=O)c2cccc(C(C)(C)C#N)c2)cc1-c1ccc2nc(Nc3cnn(C4CC4)c3)ncc2c1", "note": "(centres unmarked) [Compound S20, 3-(2-cyanopropane-2-yl)-N-(1-(3-(2-((1-cyclopropyl-1H-pyrazol-4-yl)amino)quinazolin-6-yl)-4-methylphenyl)ethyl)benzamide]", "IC50": "5.6 ± 0.3"}, {"molecule": "Cc1ccc(C(C)NC(=O)Nc2cccc(C(F)(F)F)c2)cc1-c1ccc2nc(Nc3cnn(C)c3)ncc2c1", "note": "(centres unmarked) [Compound S27, 1-(1-(4-methyl-3-(2-((1-methyl-1H-pyrazol-4-yl)amino)quinazolin-6-yl)phenyl)ethyl)-3-(3-(trifluoromethyl)phenyl)urea]", "IC50": "8.7 ± 1.1"}, {"molecule": "C[C@@H](NC(=O)c1ccc(C2CC2)c(-c2ccc3cnc(Nc4cnn(C5CC5)c4)nc3c2)c1)c1cccc(C(F)(F)F)c1", "note": "[Compound S37]", "IC50": "13.5 ± 7.2"}]}, {"target": "DDR2 (Homo sapiens (Human), UniProt Q16832)", "test": "DDR2 enzyme activity test (ELISA)", "assay_type": "biochemical", "settings": "read-out: DDR2 Inhibition rate at 0.1 μM", "description": "as §1, §2, §3, §4, §5, §6, §7, §8, §9, §10, §11, §12", "units": {"inhibition at 0.1 µM": "%"}, "values": [{"molecule": "CCN1CCN(Cc2cc(C(C)NC(=O)c3ccc(C4CC4)c(-c4ccc5nc(Nc6cnn(C7CC7)c6)ncc5c4)c3)cc(C(F)(F)F)c2)CC1", "note": "(centres unmarked) [Compound S43]", "inhibition at 0.1 µM": 57.6}, {"molecule": "Cc1nc(C(C)NC(=O)c2ccc(C3CC3)c(-c3ccc4nc(Nc5cnn(C6CC6)c5)ncc4c3)c2)cs1", "note": "(centres unmarked) [Compound S44]", "inhibition at 0.1 µM": 72.9}, {"molecule": "CC(NC(=O)c1ccc(C2CC2)c(-c2ccc3nc(Nc4cnn(C5CC5)c4)ncc3c2)c1)c1cc(C(F)(F)F)ccn1", "note": "(centres unmarked) [Compound S45]", "inhibition at 0.1 µM": 68.4}, {"molecule": "O=C(NC1CCc2c1cccc2C(F)(F)F)c1ccc(C2CC2)c(-c2ccc3nc(Nc4cnn(C5CC5)c4)ncc3c2)c1", "note": "(centres unmarked) [Compound S46]", "inhibition at 0.1 µM": 47.7}]}]}
